Source: the NIST ThermoML archive (doi:10.1016/j.jct.2004.11.015)
± gives the expanded uncertainty stated by the source.

Key:
[1] = refractive index (Na D-line) (dimensionless); conditions: 101.33 kPa, Liquid, Abbe refractometer
[2] = Liquid; for mass density: 101.33 kPa

| Compound | refractive index ([1]; 298.15 K) | mass density ([2]; 298.15 K) | further results |
| --- | --- | --- | --- |
| CC(=O)CC(C)C [4-methylpentan-2-one] | 1.3936 ± 0.0007 | 796.3 ± 1.2 kg/m3 | vapor or sublimation pressure ([2]; 387.15 K): 94.7 ± 9.6 kPa |
| CC(=O)c1ccccc1 [acetophenone] | – | – | refractive index ([1]; 293.15 K): 1.5342 ± 0.0007; mass density ([2]; 293.15 K): 1028.1 ± 1.3 kg/m3; vapor or sublimation pressure ([2]; 472.25 K): 94.7 ± 9.6 kPa |
| CCCCCO [pentan-1-ol] | 1.4085 ± 0.0007 | 815 ± 1 kg/m3 | vapor or sublimation pressure ([2]; 400.15 K): 94.7 ± 9.6 kPa |
| Cc1ccccn1 [2-methylpyridine] | 1.4984 ± 0.0007 | 939.8 ± 1.5 kg/m3 | vapor or sublimation pressure ([2]; 398.05 K): 94.7 ± 9.6 kPa |
| ClCC1CO1 (centres undefined) [1-chloro-2,3-epoxypropane] | 1.4358 ± 0.0007 | 1174.6 ± 2 kg/m3 | vapor or sublimation pressure ([2]; 389.15 K): 94.7 ± 9.6 kPa |
| CCc1ccccc1 [ethylbenzene] | 1.4932 ± 0.0007 | 862.5 ± 1.1 kg/m3 | vapor or sublimation pressure ([2]; 407.05 K): 94.7 ± 9.6 kPa |
| C=CC#N [acrylonitrile] | 1.3888 ± 0.0007 | 800.4 ± 1.3 kg/m3 | vapor or sublimation pressure ([2]; 348.85 K): 94.7 ± 9.6 kPa |
| CC(=O)N(C)C [N,N-dimethylethanamide] | 1.4356 ± 0.0007 | 936.3 ± 1.5 kg/m3 | vapor or sublimation pressure ([2]; 415.35 K): 94.7 ± 9.6 kPa |
